Reference: patent publication US9862684B2, “Modulation of K2P channels” (The Regents of the University of California, priority 2013, dated 2018)

Molecular target: T1, K2P10.1 (TREK-2) (Mus musculus, UniProt Q8BUW1)
T1 construct: expressed in transfected cells; host or cells: Xenopus oocytes
T1 sequence (Q8BUW1 1-535): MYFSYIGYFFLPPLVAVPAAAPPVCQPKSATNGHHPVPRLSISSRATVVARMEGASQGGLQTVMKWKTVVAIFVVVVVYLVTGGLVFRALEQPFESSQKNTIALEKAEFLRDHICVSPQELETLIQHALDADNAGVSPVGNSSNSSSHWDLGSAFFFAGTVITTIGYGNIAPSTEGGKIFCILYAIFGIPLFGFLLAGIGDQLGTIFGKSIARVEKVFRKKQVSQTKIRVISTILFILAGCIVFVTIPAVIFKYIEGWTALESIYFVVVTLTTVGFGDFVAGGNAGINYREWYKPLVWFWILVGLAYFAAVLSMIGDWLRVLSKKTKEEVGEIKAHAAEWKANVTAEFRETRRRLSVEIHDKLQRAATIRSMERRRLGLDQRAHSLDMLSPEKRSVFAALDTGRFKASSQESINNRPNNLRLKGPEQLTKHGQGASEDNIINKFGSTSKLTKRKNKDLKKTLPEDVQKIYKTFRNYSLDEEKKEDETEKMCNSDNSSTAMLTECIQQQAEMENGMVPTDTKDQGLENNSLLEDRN
Assay: Two-electrode voltage clamp, Xenopus oocytes expressing K2P10.1 (TREK-2)
Assay type: cell-based, Murine
Experimental: FIG. 7 ML67-33 is a selective activator of heat- and mechanosensitive K2P channels. a-f, Exemplar I-V curves showing the effect of ML67-33 on a, K2P10.1 (TREK-2), b, K2P4.1 (TRAAK), c, K2P3.1 (TASK-1), d, K2P9.1 (TASK-3), e, K2P5.1 (TASK-2), and f, K2P18.1 (TRESK) measured in Xenopus oocytes in 2 mM [K^+]o pH 7.4. Currents were elicited by a voltage ramp from −150 to 50 mV, from a holding potential of −80 mV. g, Quantification of the effect of ML67-33 on the indicated channels. Data (mean±s.e., n≧6, N≧2) was normalized to basal channel activity and fitted to the Hill equation. […] Error bars indicate s.e., n≧6, N≧2.
Murine K2P channels were cloned into pGEMHE/pMO {Bagriantsev, 2011}, IRES-GFP (Invitrogen), or pYES2-MET25 (high copy 2μ, URA3) {Minor, 1999} for expression in oocytes, HEK-293T cells, and yeast, respectively, using standard molecular biology procedures, and verified by DNA sequencing.
Two-electrode voltage clamp recordings were performed from defolliculated stage V-VI Xenopus oocytes 24-48 hours after injection with 0.015-6.0 ng cRNA, using microelectrodes (0.3-3.0 MΩ) filled with 3M KCl. Data was acquired using the GeneClamp 500B (MDS Analytical Technologies) amplifier controlled by the pClamp software (Molecular Devices), and digitized at 1 kHz using Digidata 1332A (MDS Analytical Technologies). Recording solutions (mM): 2K (96 NaCl, 2 KCl, 1.8 CaCl2, 2 MgCl2), 90K (90 KCl, 8 NaCl, 1.8 CaCl2, 2 MgCl2), were buffered 5 mM HEPES pH 7.4. For K2P recordings, currents we elicited by a 1 second long ramp from −150 to +50 mV from a holding potential of −80 mV (2K), or −100 to +50 mV from a holding potential of 0 mV (90K). For KCNQ2 recordings, currents were elicited by a step protocol from −120 to 60 mV, in 20 mV increments, from a holding potential of −80 mV. Patch-clamp recordings from HEK-293T cells were performed using microelectrodes (2-3 MΩ) filled with 1M KCl. Data was acquired using the Axopatch 200B amplifier controlled by pClamp software, and digitized at 1 kHz using Digidata 1332A. Recording solutions (mM): intracellular (145 KCl, 5 EGTA, 3 MgCl2,) extracellular (150 NaCl, 5 KCl, 3 MgCl2, 1 CaCl2) were buffered with 5 mM HEPES pH 7.2 and 7.4, respectively. Currents were elicited by a 1 second long ramp from −150 to +50 mV from a holding potential of −80 mV. Data were fitted with a modified Hill's equation: I=Imin+(Imax−Imin)/(1+10^((Log EC50−Log [C])*H)), where Imax and Imin are maximal and minimal current values, respectively, EC50 is a half-maximal effective concentration of the compound, and H is the Hill coefficient.
There are six K2P subgroups {Noel, 2011} (FIG. 11). […]

## CC1(C)c2cc(Cl)ccc2N(CCc2nnn[nH]2)c2ccc(Cl)cc21 [ML67-33, 2,7-dichloro-9,9-dimethyl-10-[2-(1H-tetrazol-5-yl)ethyl]acridine]
FIG. 7 legend: at 100 μM
  Emax (fold): 11.4±1.8 fold
Xenopus oocytes, 2 mM [K+]o pH 7.4
  EC50: 30.2 ± 1.4 µM
